This assay concerns the target T1, human D2 receptor (Homo sapiens, UniProt P14416).
T1 construct: expressed in transfected cells; cDNA from Origene clones TC308892 and SC123573
Put plainly: D2 receptor radioligand binding assay (membranes of HEK-293 cells expressing human D2 receptor). As for the experimental part: Affinity for the dopamine D2 receptor was tested in vitro, and the following describes the construction of cell lines expressing human D2 receptor, as well as the binding assays themselves.
Establishment of Stable Cell Lines Expressing Either the Cloned Human D2S Receptor or the Cloned Human D2L Receptor.
The human D2 receptor exists in two isoforms: the short form (D2S) and the long form (D2L). The two isoforms are generated from the D2 gene by alternative splicing and the D2L isoform differs from the D2S isoform by the addition of 29 amino acids in the third intracellular loop of its protein structure.
To establish HEK-293 cell lines stably expressing either the human D2S or the human D2L, the human dopamine D2S receptor (Genebank Accession Number NM_016574) and human dopamine D2L receptor (Genebank Accession Number BC021195) were amplified by PCR from Origene cDNA clones TC308892 and SC123573 (respectively) using the following primers: 5-[…]-3 (SEQ ID NO: 1) sense and 5-[…]-3 (SEQ ID NO: 2) antisense. The resulting PCR products were respectively cloned into pENTR-D-TOPO (Invitrogen), sequenced and then transferred into the pCDNA3.2-DEST (Invitrogen) using the LR-clonasc gateway reaction (Invitrogen) and sequenced again to verify the genes sequence.
HEK293 cells were maintained in Eagles Minimum Essential Medium (MEM) supplemented with 0.292 g/L L-glutamine and 10% (v/v) fetal calf serum at 37° C. in a 5% CO2 humidified atmosphere. Cells were grown to 60-80% confluency in 10 cm dishes before transfection. Transfection of the D2S and D2L containing pcDNA3.2-DEST into HEK-293 cells were performed using Lipofectamine 2000 (Invitrogen). Transfected cells were seeded and diluted 2 days after transfection and maintained in culture medium supplemented with 500 μg/mL G418. The HEK-293 cell line expressing the huD2S (R2D2S) and the huD2L (R2D2L) were maintained in culture medium supplemented with 500 μg/mL G418.
D2 Receptor Binding Assays
HEK293 cells were in Eagles Minimum Essential Medium (MEM) supplemented with 10% FBS, 0.292 g/liter L-glutamine, 10^5 units/liter penicillin, 100 mg/liter streptomycin and […] Geneticin at 37° C. in a 5% CO2 humidified atmosphere. Cells were grown to 80-90% confluence and harvested with cell stripper (Cellgro #25-056-CI). Cells were then washed with PBS (2×). Cells were either pelleted and frozen at −80° C. or membranes were prepared immediately.
Cells from pellet were resuspended in homogenization buffer (15 mM Tris*HCl, 2 mM MgCl2*6H2O, 0.3 mM EDTA, 1 mM EGTA pH 7.4 @ 4° C.). Cells were then homogenized using a Polytron (PT 1200) homogenizer at setting 6 for 10 seconds. Crude membranes were pelleted at 39, 412 g for 15 min, at 4° C. (2×) in a Sorval RC6 plus centrifuge. Membranes were finally resuspended in resuspension buffer (50 mM Tris*HCl, 120 mM NaCl, 10 mM MgCl2*6H2O, 1 mM EDTA pH 7.4 @ 4° C.) and sonicated (Fisher Sonic Dismembrator) at setting 5 for 10 seconds.
The radioligand binding assays were conducted in microtiter plates (Costar #3961) with a final volume of 1.0 mL.
The membranes were thawed at room temperature, briefly homogenized using a sonicator, diluted in assay buffer and kept on wet ice until being added to the assay plate. Membranes were diluted to a final target tissue concentration of 10 μg protein per well. The specific binding should be greater than 80% with less than 10% total radioligand bound to minimize ligand depletion errors.
First compound of the invention (50 μL) or assay buffer (50 mM Tris*HCl, 120 mM NaCl, 5 mM MgCl2*6H2O, 1 mM EDTA, 5 mM KCl pH 7.4 @37° C. plus 0.025% BSA), buffer (700 μL) and then membrane (200 μL) were added to the deep well assay plate, which was then shaken for 10 minutes. Finally, radioligand (50 μL) was added.
The assay plates were incubated at 37° C. for 120 minutes.
The assay plate were filtered over 0.3% PEI pretreated glass fiber filtermats (GF/C) using a Packard Filtermate cell harvester. […]

Setting [1] is: radioligand displacement, HEK293 membranes, 37° C. for 120 minutes, read-out: Affinity Score (IC50 values for D2 on a scale of 1 through 5).

Like-named read-outs stand apart in the source and are kept apart here.

T1 sequence (P14416 whole entry): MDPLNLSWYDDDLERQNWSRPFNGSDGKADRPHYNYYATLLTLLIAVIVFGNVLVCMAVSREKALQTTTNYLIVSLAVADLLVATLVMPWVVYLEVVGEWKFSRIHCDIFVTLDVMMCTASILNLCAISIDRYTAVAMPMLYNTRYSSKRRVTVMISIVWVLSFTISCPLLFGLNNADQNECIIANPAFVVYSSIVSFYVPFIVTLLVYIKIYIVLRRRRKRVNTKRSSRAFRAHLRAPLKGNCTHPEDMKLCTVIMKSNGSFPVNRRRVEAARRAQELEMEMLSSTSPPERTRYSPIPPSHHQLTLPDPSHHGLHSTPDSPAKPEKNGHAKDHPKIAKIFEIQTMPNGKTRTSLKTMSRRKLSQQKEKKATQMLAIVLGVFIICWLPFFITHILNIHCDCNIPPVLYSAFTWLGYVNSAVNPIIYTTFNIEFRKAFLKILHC

Broadly, the IC50 is the concentration needed to halve the response being measured. Consider `O=C(O)c1cccc(CN2CN(c3ccccc3)C3(CCN(CCCn4c(=O)[nH]c5ccccc54)CC3)C2=O)c1` [Compound 11, 3-((4-Oxo-8-(3-(2-oxo-2,3-dihydro-1H-benzo[d]imidazol-1-yl)propyl)-1-phenyl-1,3,8-triazaspiro[4.5]decan-3-yl)methyl)benzoic acid], for which the IC50 under setting [1] was below 10 nM.
For `O=C(O)c1ccc(CN2CN(c3ccccc3)C3(CCN(CCCn4c(=O)[nH]c5ccccc54)CC3)C2=O)cc1` [Compound 17, 4-((4-Oxo-8-(3-(2-oxo-2,3-dihydro-1H-benzo[d]imidazol-1-yl)propyl)-1-phenyl-1,3,8-triazaspiro[4.5]decan-3-yl)methyl)benzoic acid], under setting [1], the IC50 was below 10 nM.
Same read-out and setting: as for `O=C(O)c1ccccc1CN1CN(c2ccccc2)C2(CCN(CCCn3c(=O)[nH]c4ccccc43)CC2)C1=O` [Compound 19, 2-((4-Oxo-8-(3-(2-oxo-2,3-dihydro-1H-benzo[d]imidazol-1-yl)propyl)-1-phenyl-1,3,8-triazaspiro[4.5]decan-3-yl)methyl)benzoic acid], the figure is below 10 nM; as for `O=C(CCCCCN1CN(c2ccccc2)C2(CCN(CCCn3c(=O)[nH]c4ccccc43)CC2)C1=O)OCc1ccccc1` [Compound 21, Benzyl 6-(4-oxo-8-(3-(2-oxo-2,3-dihydro-1H-benzo[d]imidazol-1-yl)propyl)-1-phenyl-1,3,8-triazaspiro[4.5]decan-3-yl)hexanoate], below 10 nM; as for `O=C(O)CCCCCN1CN(c2ccccc2)C2(CCN(CCCn3c(=O)[nH]c4ccccc43)CC2)C1=O` [Compound 22, 6-(4-Oxo-8-(3-(2-oxo-2,3-dihydro-1H-benzo[d]imidazol-1-yl)propyl)-1-phenyl-1,3,8-triazaspiro[4.5]decan-3-yl)hexanoic acid], below 10 nM.
Still for that read-out and setting: as for `O=C(OCCN1CCOCC1)c1cccc(CN2CN(c3ccccc3)C3(CCN(CCCn4c(=O)[nH]c5ccccc54)CC3)C2=O)c1` [Compound 25, 2-Morpholinoethyl 3-((4-oxo-8-(3-(2-oxo-2,3-dihydro-1H-benzo[d]imidazol-1-yl)propyl)-1-phenyl-1,3,8-triazaspiro[4.5]decan-3-yl)methyl)benzoate], the figure is below 10 nM.
For `O=C(O[C@H]1CN2CCC1CC2)c1cccc(CN2CN(c3ccccc3)C3(CCN(CCCn4c(=O)[nH]c5ccccc54)CC3)C2=O)c1` [Compound 26, (R)-Quinuclidin-3-yl 3-((4-oxo-8-(3-(2-oxo-2,3-dihydro-1H-benzo[d]imidazol-1-yl)propyl)-1-phenyl-1,3,8-triazaspiro[4.5]decan-3-yl)methyl)benzoate], the IC50 was below 10 nM.
For the compound `CCN(CC)C(=O)COC(=O)c1cccc(CN2CN(c3ccccc3)C3(CCN(CCCn4c(=O)[nH]c5ccccc54)CC3)C2=O)c1` [Compound 30, 2-(Diethylamino)-2-oxoethyl 3-((4-oxo-8-(3-(2-oxo-2,3-dihydro-1H-benzo[d]imidazol-1-yl)propyl)-1-phenyl-1,3,8-triazaspiro[4.5]decan-3-yl)methyl)benzoate], under setting [1], the IC50 is below 10 nM.
In the case of `COC(=O)[C@@H](c1ccccc1)N1CN(c2ccccc2)C2(CCN(CCCn3c(=O)[nH]c4ccccc43)CC2)C1=O` [Compound 34, (R)-methyl 2-(4-oxo-8-(3-(2-oxo-2,3-dihydro-1H-benzo[d]imidazol-1-yl)propyl)-1-phenyl-1,3,8-triazaspiro[4.5]decan-3-yl)-2-phenylacetate], the IC50 under setting [1] was below 10 nM.
Still for that read-out and setting: under `CN1CCN(C(=O)COC(=O)c2cccc(CN3CN(c4ccccc4)C4(CCN(CCCn5c(=O)[nH]c6ccccc65)CC4)C3=O)c2)CC1` [Compound 35, 2-(4-Methylpiperazin-1-yl)-2-oxoethyl 3-((4-oxo-8-(3-(2-oxo-2,3-dihydro-1H-benzo[d]imidazol-1-yl)propyl)-1-phenyl-1,3,8-triazaspiro[4.5]decan-3-yl)methyl)benzoate] stands below 10 nM.
For `O=C(O)[C@@H](c1ccccc1)N1CN(c2ccccc2)C2(CCN(CCCn3c(=O)[nH]c4ccccc43)CC2)C1=O` [Compound 39, (R)-2-(4-oxo-8-(3-(2-oxo-2,3-dihydro-1H-benzo[d]imidazol-1-yl)propyl)-1-phenyl-1,3,8-triazaspiro[4.5]decan-3-yl)-2-phenylacetic acid], the IC50 under setting [1] is below 10 nM.
The same measure, in the same setting: as for `O=C(O)[C@H](c1ccccc1)N1CN(c2ccccc2)C2(CCN(CCCn3c(=O)[nH]c4ccccc43)CC2)C1=O` [Compound 40, (S)-2-(4-oxo-8-(3-(2-oxo-2,3-dihydro-1H-benzo[d]imidazol-1-yl)propyl)-1-phenyl-1,3,8-triazaspiro[4.5]decan-3-yl)-2-phenylacetic acid], the figure is below 10 nM; as for `O=C(O)c1cccc(CN2CN(c3ccc(F)cc3)C3(CCN(CCCn4c(=O)[nH]c5ccccc54)CC3)C2=O)c1` [Compound 43, 3-((1-(4-Fluorophenyl)-4-oxo-8-(3-(2-oxo-2,3-dihydro-1H-benzo[d]imidazol-1-yl)propyl)-1,3,8-triazaspiro[4.5]decan-3-yl)methyl)benzoic acid], below 10 nM.
Same read-out and setting: under `O=C(O)c1cccc(CN2CN(c3ccccc3)C3(CCN(CCCn4c(=O)sc5ccccc54)CC3)C2=O)c1` [Compound 52, 3-((4-Oxo-8-(3-(2-oxobenzo[d]thiazol-3(2H)-yl)propyl)-1-phenyl-1,3,8-triazaspiro[4.5]decan-3-yl)methyl)benzoic acid] stands below 10 nM.
Same read-out and setting: under `COc1ccc(N2CN(Cc3cccc(C(=O)O)c3)C(=O)C23CCN(CCCn2c(=O)[nH]c4ccccc42)CC3)cc1` [Compound 56, 3-((1-(4-Methoxyphenyl)-4-oxo-8-(3-(2-oxo-2,3-dihydro-1H-benzo[d]imidazol-1-yl)propyl)-1,3,8-triazaspiro[4.5]decan-3-yl)methyl)benzoic acid] stands below 10 nM; under `COC(=O)c1cccc(CN2CN(c3ccccc3)C3(CCN(CCCc4c[nH]c5ccccc45)CC3)C2=O)c1` [Compound 57, methyl 3-((8-(3-(1H-indol-3-yl)propyl)-4-oxo-1-phenyl-1,3,8-triazaspiro[4.5]decan-3-yl)methyl)benzoate], below 10 nM; under `O=C(O)CCCC(c1ccccc1)N1CN(c2ccccc2)C2(CCN(CCCn3c(=O)[nH]c4ccccc43)CC2)C1=O` (stereo not shown) [Compound 69, 5-(4-Oxo-8-(3-(2-oxo-2,3-dihydro-1H-benzo[d]imidazol-1-yl)propyl)-1-phenyl-1,3,8-triazaspiro[4.5]decan-3-yl)-5-phenylpentanoic acid], below 10 nM.
`O=C(O)CC(c1ccccc1)N1CN(c2ccccc2)C2(CCN(CCCn3c(=O)[nH]c4ccccc43)CC2)C1=O` (stereo not shown) [Compound 70, 3-(4-Oxo-8-(3-(2-oxo-2,3-dihydro-1H-benzo[d]imidazol-1-yl)propyl)-1-phenyl-1,3,8-triazaspiro[4.5]decan-3-yl)-3-phenylpropanoic acid]: the IC50 under setting [1] is below 10 nM.
For the compound `O=C(O)c1cccc(CN2CN(c3ccccc3)C3(CCN(CCCN4C(=O)COc5ccccc54)CC3)C2=O)c1` [Compound 71, 3-((4-Oxo-8-(3-(3-oxo-2H-benzo[b][1,4]oxazin-4(3H)-yl)propyl)-1-phenyl-1,3,8-triazaspiro[4.5]decan-3-yl)methyl)benzoic acid], the IC50 under setting [1] is below 10 nM.

These data come from patent US9156840B2, “D2 antagonists, methods of synthesis and methods of use” (ALTOS THERAPEUTICS, LLC, priority 2010, dated 2015).
